Laboratory results taken from patent publication US20200405671A1, “METHODS AND MATERIALS FOR TREATING POLYCYSTIC KIDNEY DISEASE” (Mayo Foundation for Medical Education and Research, priority 2019, published 2020).
Entries after “also recorded” stand apart in the source; their conditions may differ.

Key:
Pkd1^RC/RC mice [1] = test: Blood pressure (MAP) by tail cuff, CODA non-invasive blood pressure system; type: in vivo; conditions: compared with wild type (WT) animals
Procedure: (§1) One month old Pkd1^RC/RC mice were divided into three groups and started treatment with regular water or regular water supplemented with 1% or 2% betaine (FIG. 2) for 5 months (n=16 per group). All mice were euthanized at 6 months of age, and kidneys harvested. Cystic index was determined from histological sections. 1H-NMR-based metabolomics analysis was performed from tissue urine and plasma samples.
Blood pressure was determined during the same time frame (9-11 am) in all animals in all groups, using the CODA non-invasive blood pressure system (Kent Scientific). Briefly, mice were guided into a plastic mouse holder and were left to acclimate to the holder for 5 minutes. Ten blood pressure (BP) measurements within 10 minutes were obtained by tail cuff.

[2] = 1H-NMR-based analysis of plasma and tissue betaine concentration after betaine supplementation; type: in vivo; conditions: Pkd1^RC/RC mice, vs no betaine, p<0.001; for tissue betaine concentration: kidney tissue
Procedure: as §1

Pkd1^RC/RC mice [3] = test: Betaine supplementation in drinking water in Pkd1^RC/RC mice: kidney/body weight and cystic index from histological sections; type: in vivo; conditions: p<0.01; for kidney/body weight: euthanized at 6 months of age, no betaine 2.25; for cystic index (percentage of cyst area within the total kidney section): no betaine 21.1%
Procedure: as §1

Pkd1^RC/RC mice [4] = test: Intrarenal microvasculature quantified using a capillary index; type: in vivo; conditions: 6 months of age
Procedure: as §1
Intrarenal microvasculature was quantified using a capillary index. Capillaries in the cortex were identified by the presence of lumen, red blood cells, and/or an endothelial cell lining. For the PKD animals, the number of capillaries is calculated adjusting for the cystic area.

[5] = 1HNMR spectroscopy of stability of betaine in water; type: physicochemical; conditions: 1% and 2% betaine in water, day 0, day 2 and day 8 (course of one week)
Description: FIG. 2: ^1HNMR spectroscopy depicting stability of betaine in water during the course of 1 week. Three spectral lines on top indicating 2% betaine represent betaine concentration as determined by ^1HNMR spectroscopy at day 0, day, 2 and day 8. Below, three spectral lines indicating 1% betaine represent betaine concentration as determined by ^1HNMR spectroscopy at day 0, day, 2 and day 8. At the bottom, flat spectra can be seen for the animals receiving control water without betaine, indicated as control day 2 and 8. Overall, betaine was stable and non-significant changes in betaine concentration were observed during the course of one week.

[6] = 1% betaine in drinking water for 5 months
[7] = 2% betaine in drinking water for 5 months

## C[N+](C)(C)CC(=O)[O-] [betaine, trimethylglycine]
Pkd1^RC/RC mice [1]; 1% betaine
  Mean Arterial Pressure (MAP): preserved MAP within WT levels
Pkd1^RC/RC mice [1]; 2% betaine
  Mean Arterial Pressure (MAP): preserved MAP within WT levels
[2]; 1% betaine in drinking water
  tissue betaine concentration: significant increases; also recorded: increased
  plasma betaine concentration: increased
[2]; 2% betaine in drinking water
  tissue betaine concentration: significant increases; also recorded: increased
  plasma betaine concentration: increased
Pkd1^RC/RC mice [3]; [6]
  kidney/body weight: 1.82
  cystic index (percentage of cyst area within the total kidney section): 11.1%
Pkd1^RC/RC mice [3]; [7]
  kidney/body weight: 1.85
  cystic index (percentage of cyst area within the total kidney section): 9.4%
Pkd1^RC/RC mice [4]; 1% betaine, female animals
  capillary count (intrarenal microvasculature): not effective
Pkd1^RC/RC mice [4]; 1% betaine, male animals
  capillary count (intrarenal microvasculature): preserved the capillary count
Pkd1^RC/RC mice [4]; 2% betaine, female animals
  capillary count (intrarenal microvasculature): preserved capillary count
Pkd1^RC/RC mice [4]; 2% betaine, male animals
  capillary count (intrarenal microvasculature): preserved the capillary count
[5]
  stability of betaine in water (betaine concentration): stable
